In ChEMBL document CHEMBL1201862, “PubChem BioAssay data set” (2004):
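Method: 48-hour compound exposure of cells in 96-well plates, five concentrations, linear interpolation of endpoints. Here, GI50 denotes the concentration required for 50% inhibition of growth.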 The source made the active and inactive calls. Rule as the data show it: active = GI50 up to about 1.1 µM and inactive = higher.

Key:
Test in all cases: NCI-60 cell line screen, 48 h
786-0 = test system: 786-0
A498 = test system: A498
A549 = test system: A549
ACHN = test system: ACHN
BT-549 = test system: BT-549
CAKI-1 = test system: CAKI-1
CCRF-CEM = test system: CCRF-CEM
COLO 205 = test system: COLO 205
DU-145 = test system: DU-145
EKVX = test system: EKVX
HCC 2998 = test system: HCC 2998
HCT-116 = test system: HCT-116
HCT-15 = test system: HCT-15
HOP-62 = test system: HOP-62
HOP-92 = test system: HOP-92
HT-29 = test system: HT-29
Hs-578T = test system: Hs-578T
IGROV-1 = test system: IGROV-1
K562 = test system: K562
KM12 = test system: KM12
LOX IMVI = test system: LOX IMVI
M14 = test system: M14
MCF7 = test system: MCF7
MDA-MB-231 = test system: MDA-MB-231
MDA-MB-435 = test system: MDA-MB-435
MDA-N = test system: MDA-N
MOLT-4 = test system: MOLT-4
Malme-3M = test system: Malme-3M
NCI-H226 = test system: NCI-H226
NCI-H23 = test system: NCI-H23
NCI-H460 = test system: NCI-H460
NCI-H522 = test system: NCI-H522
NCI/ADR-RES = test system: NCI/ADR-RES
OVCAR-3 = test system: OVCAR-3
OVCAR-4 = test system: OVCAR-4
OVCAR-5 = test system: OVCAR-5
OVCAR-8 = test system: OVCAR-8
PC-3 = test system: PC-3
RPMI-8226 = test system: RPMI-8226
RXF 393 = test system: RXF 393
SF-268 = test system: SF-268
SF-295 = test system: SF-295
SF-539 = test system: SF-539
SK-MEL-28 = test system: SK-MEL-28
SK-MEL-2 = test system: SK-MEL-2
SK-MEL-5 = test system: SK-MEL-5
SK-OV-3 = test system: SK-OV-3
SN12C = test system: SN12C
SNB-19 = test system: SNB-19
SNB-75 = test system: SNB-75
SR = test system: SR
SW-620 = test system: SW-620
T47D = test system: T47D
TK-10 = test system: TK-10
U-251 = test system: U-251
UACC-257 = test system: UACC-257
UACC-62 = test system: UACC-62
UO-31 = test system: UO-31
HL-60 = test system: HL-60

Structure (SMILES): C[C@]1(O)CC(=O)c2c(c(-c3ccc4cc5c(c(O)c4c3O)C(=O)C[C@@](C)(O)C5)c3cccc(O)c3c2O)C1
- GI50 (786-0): 5.37 µM (inactive)
- GI50 (A498): 5.42 µM (inactive)
- GI50 (A549): 4.24 µM (inactive)
- GI50 (ACHN): 4.04 µM (inactive)
- GI50 (BT-549): 5.89 µM (inactive)
- GI50 (CAKI-1): 5.14 µM (inactive)
- GI50 (CCRF-CEM): 6.71 µM (inactive)
- GI50 (COLO 205): 1.79 µM (inactive)
- GI50 (DU-145): 5.53 µM (inactive)
- GI50 (EKVX): 11.2 µM (inactive)
- GI50 (HCC 2998): 4.58 µM (inactive)
- GI50 (HCT-116): 3.48 µM (inactive)
- GI50 (HCT-15): 3.76 µM
- GI50 (HOP-62): 3.48 µM (inactive)
- GI50 (HOP-92): 2.58 µM (inactive)
- GI50 (HT-29): 5.71 µM (inactive)
- GI50 (Hs-578T): 4.06 µM (inactive)
- GI50 (IGROV-1): 4.67 µM (inactive)
- GI50 (K562): 11.9 µM (inactive)
- GI50 (KM12): 3.31 µM (inactive)
- GI50 (LOX IMVI): 6.37 µM (inactive)
- GI50 (M14): 5.56 µM (inactive)
- GI50 (MCF7): 5.53 µM (inactive)
- GI50 (MDA-MB-231): 4.91 µM (inactive)
- GI50 (MDA-MB-435): 7.05 µM (inactive)
- GI50 (MDA-N): 4.56 µM (inactive)
- GI50 (MOLT-4): 9.44 µM (inactive)
- GI50 (Malme-3M): 6.35 µM (inactive)
- GI50 (NCI-H226): 3.85 µM (inactive)
- GI50 (NCI-H23): 3.69 µM (inactive)
- GI50 (NCI-H460): 3.24 µM (inactive)
- GI50 (NCI-H522): 4.88 µM (inactive)
- GI50 (NCI/ADR-RES): 5.15 µM (inactive)
- GI50 (OVCAR-3): 3.71 µM (inactive)
- GI50 (OVCAR-4): 7 µM (inactive)
- GI50 (OVCAR-5): 9.46 µM (inactive)
- GI50 (OVCAR-8): 5.02 µM (inactive)
- GI50 (PC-3): 3.08 µM (inactive)
- GI50 (RPMI-8226): 4.67 µM (inactive)
- GI50 (RXF 393): 4.58 µM (inactive)
- GI50 (SF-268): 4.31 µM (inactive)
- GI50 (SF-295): 4.86 µM (inactive)
- GI50 (SF-539): 2.75 µM (inactive)
- GI50 (SK-MEL-28): 10.4 µM (inactive)
- GI50 (SK-MEL-2): 2.52 µM (inactive)
- GI50 (SK-MEL-5): 3.66 µM (inactive)
- GI50 (SK-OV-3): 10.3 µM (inactive)
- GI50 (SN12C): 6.22 µM (inactive)
- GI50 (SNB-19): 6.52 µM (inactive)
- GI50 (SNB-75): 7.59 µM (inactive)
- GI50 (SR): 5.56 µM (inactive)
- GI50 (SW-620): 6 µM (inactive)
- GI50 (T47D): 2.86 µM (inactive)
- GI50 (TK-10): 6.82 µM (inactive)
- GI50 (U-251): 4.02 µM (inactive)
- GI50 (UACC-257): 7.36 µM (inactive)
- GI50 (UACC-62): 5.64 µM (inactive)
- GI50 (UO-31): 4.16 µM (inactive)

Structure (SMILES): O=[N+]([O-])c1ccc2c3c1[C@@H]1O[C@@H]1c1cccc(c1-3)[C@@H]1O[C@H]21
- GI50 (786-0): 2.47 µM (inactive)
- GI50 (A498): 3.23 µM (inactive)
- GI50 (A549): 6.76 µM (inactive)
- GI50 (ACHN): 1.94 µM (inactive)
- GI50 (BT-549): 6.11 µM (inactive)
- GI50 (CAKI-1): 1.61 µM (inactive)
- GI50 (CCRF-CEM): 2.45 µM (inactive)
- GI50 (COLO 205): 6.47 µM (inactive)
- GI50 (DU-145): 3.1 µM (inactive)
- GI50 (EKVX): 6.35 µM (inactive)
- GI50 (HCT-116): 2.42 µM (inactive)
- GI50 (HCT-15): 2.57 µM
- GI50 (HL-60): 3.1 µM (inactive)
- GI50 (HOP-62): 10.2 µM (inactive)
- GI50 (HOP-92): 9.46 µM (inactive)
- GI50 (HT-29): 3.48 µM (inactive)
- GI50 (Hs-578T): 3.1 µM (inactive)
- GI50 (IGROV-1): 1.24 µM (inactive)
- GI50 (K562): 4.2 µM (inactive)
- GI50 (KM12): 2.72 µM (inactive)
- GI50 (LOX IMVI): 1.27 µM (inactive)
- GI50 (M14): 3.24 µM (inactive)
- GI50 (MCF7): 3.55 µM (inactive)
- GI50 (MDA-MB-231): 6.44 µM (inactive)
- GI50 (MDA-MB-435): 2.08 µM (inactive)
- GI50 (MDA-N): 3.04 µM (inactive)
- GI50 (MOLT-4): 4.69 µM (inactive)
- GI50 (Malme-3M): 3.49 µM (inactive)
- GI50 (NCI-H226): 26.6 µM (inactive)
- GI50 (NCI-H23): 3.94 µM (inactive)
- GI50 (NCI-H522): 1.67 µM (inactive)
- GI50 (NCI/ADR-RES): 4.91 µM (inactive)
- GI50 (OVCAR-3): 3.05 µM (inactive)
- GI50 (OVCAR-4): 3.35 µM (inactive)
- GI50 (OVCAR-5): 13.6 µM (inactive)
- GI50 (OVCAR-8): 2.04 µM (inactive)
- GI50 (PC-3): 7.91 µM (inactive)
- GI50 (RPMI-8226): 1.88 µM (inactive)
- GI50 (RXF 393): 4.17 µM (inactive)
- GI50 (SF-268): 2.56 µM (inactive)
- GI50 (SF-295): 11 µM (inactive)
- GI50 (SF-539): 2.02 µM (inactive)
- GI50 (SK-MEL-28): 3.1 µM (inactive)
- GI50 (SK-MEL-2): 6.14 µM (inactive)
- GI50 (SK-MEL-5): 10.7 µM (inactive)
- GI50 (SK-OV-3): 17.4 µM (inactive)
- GI50 (SN12C): 2.71 µM (inactive)
- GI50 (SNB-19): 14.6 µM (inactive)
- GI50 (SNB-75): 5.68 µM (inactive)
- GI50 (SR): 4.21 µM (inactive)
- GI50 (SW-620): 2.72 µM (inactive)
- GI50 (T47D): 3.35 µM (inactive)
- GI50 (TK-10): 7.78 µM (inactive)
- GI50 (U-251): 4.08 µM (inactive)
- GI50 (UACC-257): 6.87 µM (inactive)
- GI50 (UACC-62): 7.14 µM (inactive)
- GI50 (UO-31): 2.07 µM (inactive)
